In patent US20060135569A1, “Use of benzisoselenazolone compounds against ischemic myocardial damage” (priority 2002, published 2006):
Marks after values point to notes of the source that are not given here.

Tests used:
TA98 = assay: Ames test, strain TA98; format: cell-based
Experimental: (§1) To assess the mutagenic effects of 5 compounds (IMM-004; IMM-065; IMM-127; IMM-128; IMM-313), the Ames test was performed in 4 strains (TA97; TA98; TA100; TA102). The experiment was conducted with compounds at 4 concentration levels (0.5, 5, 50 and 500 μg/dish). […]

Na^+/Ca^2+ exchanger = biological target: T1, Na^+/Ca^2+ exchanger (Cavia porcellus, UniProt P48766); assay: Na^+/Ca^2+ exchange current (INa—Ca), whole-cell patch clamp, intracellular Na^+ overload cell model; format: cell-based, guinea pig
T1 construct: endogenous in cells; host or cells: freshly isolated guinea pig ventricular myocytes
Source text: 1. Establishment of Assaying Method for Biphasical Current Detection in Na^+/Ca^2+ Exchange System
Since the reverse mode of Na^+/Ca^2+ exchange process is one of the main mechanisms involving in ischemia/reperfusion insult, it is of great importance to establish cell model represented reverse mode Na^+/Ca^2+ exchange process for the development of drugs against ischemic injury. Therefore, we successfully established cell model of reverse mode Na^+/Ca^2+ exchange system by intracellular Na^+ dialysis technique, and recorded Na^+/Ca^2+ exchange currents by patch clamp experiment.
Internal solution contained certain concentration of NaCl was filled to the microcatheter, and ion exchange process between the cellular and internal solutions was conducted after whole cell currents were recorded by patch clamp. Na^+ contained in the internal solution was dialyzed into the cell; result in the high intracellular Na^+ concentration. After that, the cell was champed at a holding potential of −40 mV, then depolarized to +60 mV and followed by a conversely declining ramp stimuli at a speed of 80 mV·s^−1 and 2 s conditioning pulse, then repolarized to −100 mV with a frequency of 0.05 Hz. Under the stimulation protocol, current from outward to the inward direction was recorded by perfusing modified biphasical Tyrode solution (in which the outward and inward currents can be recorded simultaneously) with the addition of 1 mmol·L^−1 of BaCl2 and 2 mmol·L^−1 of CsCl to block K^+ channels, 1 μmol·L^−1 of verapamil to block L-type Ca^2+ channels, and 20 μmol·L^−1 of ouabain to block Na^+/K^+ ATPase, and 20 mmol·L^−1 of TEA to block potassium channels. The recorded inward currents were presented in a linear manner owing to the blockade of other time-dependent currents. With the increase of intracellular Na^+ level and prolongation of time, the reverse mode of Na^+/Ca^2+ exchange process was activated. […] Under such experimental conditioning, the maximum reverse mode current was recorded 3 min after cell crushed. No significant “run-down” was observed within the record period of 8 minutes. The inward and outward current were inhibited by 5 mmol·L^−1 of Ni^2+ treatment, and the experiment result in two current-voltage curves in the absence or presence of Ni^2+. The Ni^2+ sensitive current, also called electrophysiological Na^+/Ca^2+ exchange current (INa·Ca), was the minus result of two current-voltage curves. The reverse mode potential of INa—Ca was about −20 mV
Male guinea pigs weighting 250˜280 g provided by the Animal Center of the Chinese Academy of Medical Sciences were hammered and sacrificed. The chest was opened and the heart was removed quickly. Fatty tissue and pericardium were removed in a Ca^2+-free solution at 4° C., and heart was sequentially mounted on a Langendorff apparatus. First, the heart was perfused conversely via the aorta for 6 min with Ca^2+-free solution in order to wash out residual blood, then the heart expands and the color of it turns to pink. Then the heart was perfused with Ca^2+-free solution containing 0.1 mg/ml of pronase E, 0.5 mg/ml defatted bovine serum albumin (BSA) and 150 μM Ca^2+ for 2˜3 min, until the heart expanded and became soft. The atrium was removed, and the digested heart was minced with scissors, stirred in a beaker at 37° C. for 5˜10 min. The supernatant was diluted with Ca^2+-free solution containing 0.5 mg/ml BSA and 1.8 mM Ca^2+. The supernatant was placed at room temperature (20˜24° C.) for 1 hr and then subjected to the experiment. During the whole perfusion period, pressure was kept at 70 cmH2O and the temperature of solution was kept at 37° C. with continuously gassed with 95% O2 and 5% CO2.
Rod-shaped cells with clear striations and intact membrane were used. […]

TA102 = assay: Ames test, strain TA102; format: cell-based
Experimental: as §1

[1] = tested on: isolated rat hearts subjected to ischemia-reperfusion (I/R); assay: Isolated heart subjected to ischemia/reperfusion injury (arrhythmia)
Experimental: Based on the pre-electrophysiological cell model screening, we have compared the inhibition ratios of the outward current by reverse-transportation of Na^+/Ca^2+ exchange, and further in vitro tests on isolated rat hearts subjected to ischemia-reperfusion (I/R) were conducted. Prolongation of ventricular arrhythmic, incidence rate of ventricular extrasystole, ventricular tachycardia/ventricular fibrillation (VT/VF) were recorded to evaluate the protective actions of drugs on myocardial injury.
On the basis of above screening results obtained from electrophysiological studies, and the result from comparative study on the research of the inhibitory effect of compounds on reverse mode Na^+/Ca^2+ exchange process, 7 effective compounds were subjected to in vitro study. Among which, IMM-313, IMM-004 and IMM-132 have structures containing chlorine; IMM-127, IMM-128 and IMM-129 have structures containing fluorine; and IMM-065 has a structure containing OH. The experiment performed in the isolated heart subjected to ischemia/reprefusion insult. Prolongation of ventricular arrhythmic, incidence of ventricular extrasystole, ventricular tachycardia/ventricular fibrillation (VT/VF) were recorded in order to evaluate the protective actions of drugs on myocardial injury.

[2] = tested on: arrhythmia caused by ischemia/reperfusion insults in anaesthetic rats; assay: Ischemia/reperfusion arrhythmia in anaesthetic rats, intravenous injection; format: in vivo, rat
Source text: (1) Protective Effects of the Tested Compounds on Myocardial Insults in Rats after Intravenously Injection
Arrhythmic potency induced by myocardial insults was used to assess the potential protective effect of the compounds.

TA100 = assay: Ames test, strain TA100; format: cell-based
Experimental: as §1

TA97; TA98; TA100; TA102 = assay: Ames (mutagenesis) test, overall result in 4 strains; format: cell-based; conditions: 0.5, 5, 50 and 500 μg/dish
Experimental: as §1

TA97 = assay: Ames test, strain TA97; format: cell-based
Experimental: as §1

[3] = Example 1 table, myocardial cell
[4] = screening of 22 candidate compounds
[5] = 10^−6 M, isolated heart ischemia/reperfusion

O=c1c2ccc(Cl)cc2[se]n1-c1ccncc1 [IMM-313, 6-chloro-2-(4-pyridyl)-1,2-benz-isoselenazol-3(2H)-one]
TA98 +S9 (TA98; 0.5 μg/dish): 49.33 ± 3.86 | TA98 −S9 (TA98; 0.5 μg/dish): 100.50 ± 3.50 | TA98 +S9 (TA98; 5 μg/dish): 50.33 ± 5.79 | TA98 −S9 (TA98; 5 μg/dish): 86.50 ± 5.50 | TA98 +S9 (TA98; 50 μg/dish): 47.33 ± 1.25 | TA98 −S9 (TA98; 50 μg/dish): 0 | TA98 +S9 (TA98; 500 μg/dish): 0 | TA98 −S9 (TA98; 500 μg/dish): 87.67 ± 5.25 | Inhibitory rate of inward INa—Ca (%) (Na^+/Ca^2+ exchanger; [3]): 28% | Inhibitory rate of outward INa—Ca (%) (Na^+/Ca^2+ exchanger; [3]): 50% | Inhibitory rate of inward INa—Ca (%) (Na^+/Ca^2+ exchanger; [4]): 28% | Inhibitory rate of outward INa—Ca (%) (Na^+/Ca^2+ exchanger; [4]): 50* % | TA102 +S9 (TA102; 0.5 μg/dish): 250.00 ± 10.00 | TA102 −S9 (TA102; 0.5 μg/dish): 215.33 ± 13.91 | TA102 +S9 (TA102; 5 μg/dish): 220.00 ± 28.00 | TA102 −S9 (TA102; 5 μg/dish): 211.33 ± 18.35 | TA102 +S9 (TA102; 50 μg/dish): 265.33 ± 15.43 | TA102 −S9 (TA102; 50 μg/dish): 0 | TA102 +S9 (TA102; 500 μg/dish): 0 | TA102 −S9 (TA102; 500 μg/dish): 177.67 ± 23.33 | protective effects on myocardial insults ([1]; 10^−6M, isolated heart): significant protective effects | AAT: arrhythmic occurrence time, Time [1, 5]: 1.67 ± 0.70 min | VF (ventricular fibrillation) Incidence rate (%) [1, 5]: 30* % | VPS (ventricular premature beats) Incidence rate (%) [1, 5]: 20* % | VT (ventricular tachycardia) Incidence rate (%) [1, 5]: 30% | incidence and duration of VT, VF, VE / ventricular arrhythmic ([2]; 3 mg/Kg intravenous (femoral vein), rats): no significant effect | rats with heart rate irreversibly reduced within 5 min (died at last) ([2]; 3 mg/Kg intravenous, before ligation, 7/17 rats): 41.2% | TA100 +S9 (TA100; 0.5 μg/dish): 99.33 ± 2.49 | TA100 −S9 (TA100; 0.5 μg/dish): 68.67 ± 17.33 | TA100 +S9 (TA100; 5 μg/dish): 111.33 ± 7.71 | TA100 −S9 (TA100; 5 μg/dish): 45.67 ± 6.65 | TA100 +S9 (TA100; 50 μg/dish): 106.00 ± 7.48 | TA100 −S9 (TA100; 50 μg/dish): 0 | TA100 +S9 (TA100; 500 μg/dish): 0 | TA100 −S9 (TA100; 500 μg/dish): 16.5 ± 0.5 | mutagenic effect (Ames test) (TA97; TA98; TA100; TA102): No evidence for a mutagenic effect | TA97 +S9 (TA97; 0.5 μg/dish): 64.67 ± 8.65 | TA97 −S9 (TA97; 0.5 μg/dish): 47.33 ± 6.13 | TA97 +S9 (TA97; 5 μg/dish): 70.33 ± 4.11 | TA97 −S9 (TA97; 5 μg/dish): 38.33 ± 13.09 | TA97 +S9 (TA97; 50 μg/dish): 60.00 ± 7.12 | TA97 −S9 (TA97; 50 μg/dish): 0 | TA97 +S9 (TA97; 500 μg/dish): 0 | TA97 −S9 (TA97; 500 μg/dish): 33.33 ± 13.59
